Assay results: patent US20120129842A1, “BISTHIAZOLE INHIBITORS OF PRO-MATRIX METALLOPROTEINASE ACTIVATION” (priority 2010, published 2012)

Key:
[1] = system: SCW-induced arthritis; assay: Efficacy in rats with SCW-induced arthritis (ankle thickness, clinical scores); format: in vivo, rat; conditions: 5, 20, 50 mg/kg BID oral
Text: A polyarthritis can be induced in female Lewis rats following i.p. administration of streptococcal cell wall (SCW) […] (PG-PS) (J Exp Med 1977; 146:1585-1602). The model has an acute phase (days 3-7) that is complement and neutrophil-dependent and that resolves. A chronic erosive phase begins at about day ten and is dependent on the development of specific T cell immunity to the PG-GS, which resists digestion and remains present in synovial macrophages for months. Like rheumatoid arthritis, SCW-induced arthritis is reduced by TNF inhibitors, and the dependence of SCW-induced arthritis on macrophages (Rheumatology; 2001; 40:978-987) and the strong association of rheumatoid arthritis severity with synovial-tissue macrophage counts (Ann Rheum Dis; 2005; 64:834-838) makes SCW-arthritis an attractive model for testing potential therapeutic agents. SCW PG-PS 10S (Beckton Dickinson Cat#210866) suspended in saline was vortexed for 30 seconds and sonicated for 3 min with a probe type sonicator prior to injection. […]
To induce arthritis, Female Lewis (LEW/N) rats, 5-6 weeks of age (80-100 g) were injected (i.p.) with SCW PG-PS as described above. […] Each ankle was measured 3 times and averaged, and treatment groups were randomized based on ankle thickness (Table 6). […]

[2] = molecular target: proMMP13(1-268) (SEQ ID NO:7) (Homo sapiens, UniProt P45452); assay: ProMMP13/Plasmin P126 Activation Assay; format: biochemical; parameters: 6xHis (C); made in house; host or cells: HEK293 (transient, secreted); conditions: 8 nM proMMP13, 16 nM plasmin, 40 min 37° C.
Method: On the day of assay, proMMP13(1-268) (SEQ ID NO:7) purified from HEK293 cells and plasmin were diluted to 160 nM and 320 nM, respectively, in assay buffer. The reaction volume was 50 μL. […] The plate was sealed and incubated for 40 min at 37° C. […] Plasmin was not reactive towards P-126 substrate under these conditions.

[3] = molecular target: T1, proMMP9 (Homo sapiens, UniProt P14780); assay: Activation of proMMP9 by human fetal lung fibroblast (HFL-1) cultures (Western blot); format: cell-based
T1 construct: host or cells: HFL-1 human fetal lung fibroblasts, TNFα plus human neutrophil elastase
Method: Activation of proMMP9 by Human Fetal Lung Fibroblast Cultures Example 64 was assessed additionally for ability to block the maturation of proMMP9 to active MMP9 in cultures of human fetal lung fibroblasts (HFL-1, American Type Culture Collection #CCL-153). Unlike rat synoviocytes, HFL-1 cells were unable to process proMMP9 to the active form without addition of neutrophil elastase. […] Rather, the function of elastase in this assay may be to inactivate tissue inhibitors of matrix metalloproteinases (TIMPs) that repress endogenous pathways of MMP9 activation (Am J Respir Grit Care Med; 1999; 159:1138-46).
HLF-1 were maintained in monolayer culture in DMEM with 10% FCS and were used between passage numbers 5-15. HLF-1 were embedded in collagen gels as described for rat SCW synoviocytes (vida supra). Half mL gels containing 0.4 million cells were dislodged into wells of 12 well Costar plates containing 1 mL/well of DMEM adjusted to contain 0.05% BSA and 100 ng/mL human TNFα (R&D Systems Cat #210-TA/CF). After overnight culture (37° C. and 5% CO2) wells were adjusted to contain an additional 0.5 mL of DMEM containing 0.05% BSA and with or without 13.2 μM Example 64 (final concentration was 3.3 μM Example 64). Next, cultures were adjusted to contain 30 nM human elastase (Innovative Research). The plates were cultured an additional 72 hrs, at which time MMP9 secreted into the conditioned media was bound to gelatin-sepharose and evaluated by Western blot analysis as described for the rat synoviocyte cultures (vida supra). mAb-51/82 detected three forms of MMP9 in HFL-1 cultures.
A second experiment was performed to determine if the 80 kD form was mature active MMP9 and to determine the potency of Example 64 as an inhibitor of MMP9 maturation in this assay. HFL-1 cells embedded in collagen gels were cultured as described above in the presence of TNFα overnight and the cultures were then adjusted to contain 30 nM elastase and graded concentrations of Example 64 for an additional 72 hrs at which time MMP9 secreted into the conditioned media was bound to gelatin-sepharose and evaluated by Western blot analysis for active MMP9 using pAb-1246 raised against the N-terminal neoepitope of active MMP9 (Table 5). In the absence of Example 64, pAb-1246 readily detected MMP9 with an electrophoretic mobility of approximately 80 kD. […] Inhibition occurred over a dose range with an IC50 of approximately 0.3 μM Example 64.

T1 sequence (P14780 20-707 limits assumed): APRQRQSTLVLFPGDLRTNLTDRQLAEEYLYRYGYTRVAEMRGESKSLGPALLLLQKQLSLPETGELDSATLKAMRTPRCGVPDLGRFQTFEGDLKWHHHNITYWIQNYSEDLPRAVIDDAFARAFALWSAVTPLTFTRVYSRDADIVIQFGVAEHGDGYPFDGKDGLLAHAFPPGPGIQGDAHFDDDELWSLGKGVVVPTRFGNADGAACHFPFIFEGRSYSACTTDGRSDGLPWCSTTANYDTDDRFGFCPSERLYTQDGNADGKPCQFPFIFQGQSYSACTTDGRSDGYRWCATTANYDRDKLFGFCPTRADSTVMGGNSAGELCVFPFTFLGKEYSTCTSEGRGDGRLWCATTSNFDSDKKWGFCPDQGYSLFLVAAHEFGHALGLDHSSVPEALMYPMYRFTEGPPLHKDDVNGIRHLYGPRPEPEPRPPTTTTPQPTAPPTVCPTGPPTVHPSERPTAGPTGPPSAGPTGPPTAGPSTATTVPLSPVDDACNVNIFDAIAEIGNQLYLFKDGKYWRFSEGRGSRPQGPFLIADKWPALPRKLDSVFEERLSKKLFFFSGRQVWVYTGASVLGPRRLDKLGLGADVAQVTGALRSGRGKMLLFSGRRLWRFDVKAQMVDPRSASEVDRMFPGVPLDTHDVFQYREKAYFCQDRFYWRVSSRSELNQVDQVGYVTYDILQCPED

With `Cc1nc(C)c(-c2csc(Nc3cc(S(N)(=O)=O)ccc3OC(C)C)n2)s1` [Example 64, 3-(2′,4′-Dimethyl-[4,5′]bithiazolyl-2-ylamino)-4-isopropoxy-benzenesulfonamide.HBr] the “ankle thickness measurements, effect of treatment” value ([1]; Day 18-26) was “dose-dependent decrease in ankle thickness measurements”, the “clinical score measurements, effect of treatment” value ([1]; significant effects emerging at 20 mg/kg) was “dose dependent decrease in clinical score measurements” and the IC50 [2] was 3.3 µM. The “Signal (INT*mm^2) Total” value ([3]; 3.3 μM, HFL-1, mAb-L51/82, 30 nM elastase, 72 hrs) was 91346 INT*mm^2, the inhibition at 0.12 µM ([3]; HFL1, 0.12 μM, HFL-1, 80 kD band, pAb-1246) was 0% and the inhibition at 0.37 µM ([3]; HFL1, 0.37 μM, HFL-1, 80 kD band, pAb-1246) was 73%. It also gave an inhibition at 1.1 µM ([3]; HFL1, 1.1 μM, HFL-1, 80 kD band, pAb-1246) of 99%, an inhibition at 3.3 µM ([3]; HFL1, 3.3 μM, HFL-1, 80 kD band, pAb-1246) of 100% and an inhibition at 10 µM ([3]; HFL1, 10 μM, HFL-1, 80 kD band, pAb-1246) of 100%.
